Assay results: US11234967B2, “Use of 3-[5-amino-4-(3-cyanobenzoyl)-pyrazol-1-yl]-n-cyclopropyl-4-methylbenzamide in the prevention or reduction of acute exacerbations of chronic obstructive pulmonary disease” (MEREO BIOPHARMA 1 LIMITED, priority 2017, dated 2022)

Key:
[1] = tested on: high sensitivity C-Reactive Protein (hsCRP); assay: AETHER Phase 2 trial: hsCRP blood concentration; type: in vivo, human
Excerpt: (§1) A Phase 2 trial (referred to as AETHER) was a double-blind, randomised, placebo-controlled clinical study investigating the use of BCT-197, on top of Standard of Care, for the treatment of patients with AECOPD. Standard of Care included the addition of steroids and/or antibiotics to a patient's chronic COPD medication and symptomatic bronchodilators. Following baseline assessment, 282 eligible patients were randomised to receive either one of two different dose regimens of BCT-197 or placebo (three doses over five days).
Inflammatory biomarkers are related to disease outcomes (Barnes and Celli, Eur Respir J, 2009, 33, pp 1165-1185; Bourdin et al., Eur Respir Rev, 2009, 18, pp 198-212) and are central to the proposed mechanism of action for BCT197. A further exploratory outcome was included out to 6 months, namely the inflammatory biomarker high sensitivity C-Reactive Protein (hsCRP) measured in patients. […] This is supportive that treatment in accordance with the invention leads to a reduction in re-hospitalisations and non-hospitalised exacerbations over this period through long term reduction in inflammation.
After the acute treatment period, the hsCRP remains lower in those who had received BCT197 compared to placebo to Day 180 (p value<0.05) without additional dosing of BCT197, supporting a prolonged pharmacology effect on inflammation by BCT197.
(§2) A further exploratory outcome included over the treatment period to Day 5 and BCT197 systemic exposure (to Day 14) were the inflammatory biomarkers high sensitivity C-Reactive Protein (hsCRP) and fibrinogen measured in patient blood. […] This was maximal at Day 7 (FIGS. 12 and 13) coincident with the highest improvement in FEV1 (FIG. 11) in response to BCT197 in the same patient population with <2% eosinophils.

[2] = tested on: acute exacerbations of COPD; assay: AETHER Phase 2 trial: occurrence of new acute exacerbations of COPD / re-hospitalisation out to 6 months; type: in vivo, human
Excerpt: A Phase 2 trial (referred to as […]) was a double-blind, randomised, placebo-controlled clinical study investigating the use of BCT-197, on top of Standard of Care, for the treatment of patients with AECOPD. Standard of Care included the addition of steroids and/or antibiotics to a patient's chronic COPD medication and symptomatic bronchodilators. Following baseline assessment, 282 eligible patients were randomised to receive either one of two different dose regimens of BCT-197 or placebo (three doses over five days). The trial assessed adult patients ≥40 years with an acute exacerbation of COPD (as defined by increase in symptoms of cough, and/or sputum and/or breathlessness that required addition of antibiotics and or systemic corticosteroids to their regular treatment). The dosing regimen of 3-[5-amino-4-(3-cyanobenzoyl)-pyrazol-1-yl]-N-cyclopropyl-4-methylbenzamide or matching oral placebo administered are shown in Table 1. [table] BCT197 or placebo was added on top of the standard of care for the exacerbation. Exploratory long term outcomes after the acute treatment were included out to 6 months. […] Inclusion criteria for the study population were: • Males/females≥40 • On regular treatment for COPD (categories C and D by 2015 GOLD guidelines) • Presence of an active exacerbation of the ongoing COPD requiring hospitalisation for treatment: • At least one moderate or severe COPD exacerbation in the preceding 12 months • Smoking history of at least 10 pack years • FEV1<65% of the predicted normal value Exclusion criteria for the study population were: • Current diagnosis of asthma • Treatment with systemic corticosteroids or antibiotics in the prior 4 weeks. • Requiring intensive care unit treatment • Clinically significant cardiovascular condition of clinically significant ECG abnormality • Concurrent pneumonia, pulmonary embolus or pneumothorax

AECOPD = settings: single oral dose; cited from earlier work
[3] = tested on: lymphocytes and neutrophils; assay: AETHER Phase 2 trial: % lymphocytes and neutrophils in blood; type: in vivo, human
Excerpt: as §1
Systemic markers of adaptive and innate immunity are predictive of disease progression in COPD. […] Consequently, the effect of BCT197 to rebalance these biomarkers to a healthier phenotype, including beyond the period of systemic drug exposure, supports the potential benefit of the dosing regimens of the present invention.

patients with AECOPD = assay: AETHER Phase 2 trial: change in FEV1 from baseline to Day 7; type: in vivo, human; settings: for FEV1 change from baseline to Day 7, sub-group with blood eosinophils <2%: on top of standard of care, compared to other sub-groups and placebo, FIGS. 10, 11
Excerpt: as §1, with “either” for “either one of”, “days). The primary endpoint was a comparison of change in forced expiratory volume in 1 second (FEV1) from baseline to day 7 within each arm of the study.” for “days).”
The trial assessed adult patients≥40 years with an acute exacerbation of COPD (as defined by increase in symptoms of cough, and/or sputum and/or breathlessness that required addition of antibiotics and or systemic corticosteroids to their regular treatment).
Patients received one of two oral dosing regimens of 3-[5-amino-4-(3-cyanobenzoyl)-pyrazol-1-yl]-N-cyclopropyl-4-methylbenzamide or matching oral placebo administered according to the dosing schedules shown in Table 2.
Inclusion criteria for the study population were: • Males/females≥40 • On regular treatment for COPD (categories C and D by 2015 GOLD guidelines) • Presence of an active exacerbation of the ongoing COPD requiring hospitalisation for treatment: • At least one moderate or severe COPD exacerbation in the preceding 12 months • Smoking history of at least 10 pack years • FEV1<65% of the predicted normal value […]
Efficacy of treatment was measured by the primary endpoint of change in FEV1 from baseline (before treatment) to Day 7. Patients with COPD and low eosinophils (determined by blood percentages or absolute counts) are considered to be poorly responsive to treatment of acute exacerbations using known treatments.

fibrinogen = assay: AETHER Phase 2 trial: fibrinogen blood concentration; type: in vivo, human; settings: high and low dose over 5 days; to Day 14; including <2% eosinophils; maximal at Day 7; FIG. 13
Excerpt: as §1, with “either” for “either one of”, “days). The primary endpoint was a comparison of change in forced expiratory volume in 1 second (FEV1) from baseline to day 7 within each arm of the study.” for “days).”
as §2

**Q.** With Cc1ccc(C(=O)NC2CC2)cc1-n1ncc(C(=O)c2cccc(C#N)c2)c1N [BCT197, 3-[5-amino-4-(3-cyanobenzoyl)-pyrazol-1-yl]-N-cyclopropyl-4-methylbenzamide] as the molecule, how does the “hsCRP for the subsequent 6 months versus placebo” value ([1]; both high and low dose over 5 days, both high and low eosinophil sub group, FIGS. 4 and 5) read?
**A.** sustained and durable reduction in hsCRP

**Q.** What about the “hsCRP from baseline versus placebo” value ([1]; high and low dose over 5 days, to Day 14, including <2% eosinophils, maximal at Day 7, FIG. 12) of the same molecule?
**A.** dose-dependent reduction

**Q.** And the “decrease in hsCRP to day 7 during acute treatment compared to placebo” value ([1]; high dose, combined Eos>2% and <2%, p<0.05 at Day 3, 7 and 10, FIG. 6)?
**A.** significantly greater

**Q.** What about the “hsCRP after the acute treatment period compared to placebo” value ([1]; high dose, to Day 180 without additional dosing, p value<0.05, FIG. 6) of the same molecule?
**A.** remains lower

**Q.** And the “re-hospitalisation for COPD” value ([2]; both high and low dose over 5 days, subsequent 6 months, high eosinophil sub group (Eos>2%), vs placebo, FIG. 3)?
**A.** able to reduce re-hospitalisation for COPD

**Q.** What about the “reduction of occurrence of new exacerbations that require hospitalisation” value ([2]; high dose (75/40/40 mg, days 1, 3, 5) on top of standard of care, subsequent 6 months, vs placebo, FIG. 1) of the same molecule?
**A.** 40-60%

**Q.** What about the “period of greatest effect on new exacerbations that require hospitalisation” value ([2]; high dose, based on numerical difference to placebo and statistical significance) of the same molecule?
**A.** between 3 and 4 months

**Q.** What about the “recurrent exacerbations that were not hospitalised” value ([2]; short course of high dose, FIG. 2) of the same molecule?
**A.** reductions

**Q.** And the “recovery of AECOPD to the stable disease state” value (AECOPD)?
**A.** accelerates the recovery to the stable disease state

**Q.** What about the “change from baseline in % neutrophils during acute treatment” value ([3]; high and low dose vs placebo, greater than placebo with dose-dependent effect, FIG. 8) of the same molecule?
**A.** rapid decrease in % neutrophils

**Q.** What about the “change from baseline in % lymphocytes over the acute treatment period” value ([3]; high and low dose vs placebo, to Day 14, FIG. 7) of the same molecule?
**A.** dose-dependent increase in lymphocytes

**Q.** And the “reduction in % neutrophils compared to placebo to Day 56” value ([3]; without additional dosing, FIG. 9)?
**A.** remains greater

**Q.** And the “FEV1: relative difference to standard of care, >2% eosinophil sub-population” value (patients with AECOPD; FIG. 10 right hand side)?
**A.** much less than in the low eosinophil group

**Q.** What about the “FEV1 change from baseline to Day 7, sub-group with blood eosinophils <2%” value (patients with AECOPD) of the same molecule?
**A.** substantial and consistent improvement in FEV1

**Q.** What about the “FEV1 change from baseline to Day 7, sub-group with blood eosinophils <2%” value (patients with AECOPD; listed as compound A) of the same molecule?
**A.** significant improvement

**Q.** What about the “fibrinogen from baseline versus placebo” value (fibrinogen) of the same molecule?
**A.** dose-dependent reduction
